Measurements from patent publication US6358885B1, “Substituted phenylheterocyclic herbicides” (Mississippi State University, priority 1992, dated 2002).

Assays:
Japonica rice [1] = assay: Test D paddy water application plant response rating 0 to 100; format: in vivo, Oryza sativa; settings: 0 to 100 scale, approx. 21 days
Procedure, shortened: (§1)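 Pots of water-saturated silt loam were kept flooded 3 cm above the soil. Compounds in non-phytotoxic solvent were applied into the paddy water. Plants were visually rated against untreated controls after about 21 days in the greenhouse.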

barnyardgrass [2] = assay: as above; format: in vivo, Echinochloa crus-galli; settings: 0 to 100 scale, approx. 21 days
Procedure, shortened: as §1

duck salad = assay: as above; format: in vivo, Heteranthera limosa; settings: 0 to 100 scale, approx. 21 days
Procedure, shortened: as §1

umbrella sedge = assay: as above; format: in vivo, Cyperus difformis; settings: 0 to 100 scale, approx. 21 days
Procedure, shortened: as §1

arrowhead = assay: as above; format: in vivo, Sagittaria spp.; settings: 0 to 100 scale, approx. 21 days
Procedure, shortened: as §1

waterchestnut = assay: as above; format: in vivo, Eleocharis spp.; settings: 0 to 100 scale, approx. 21 days
Procedure, shortened: as §1

Japonica rice [3] = assay: Test E paddy water application plant response rating 0 to 100; format: in vivo, oryza sativa; settings: Flood, 0 to 100 scale, approx. 21 days
Procedure, shortened: (§2)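 Compounds in a non-phytotoxic solvent were applied directly to paddy water kept 2 cm above silt loam soil in greenhouse pots.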

barnyardgrass [4] = assay: as above; format: in vivo, Echinochloa crus-galli; settings: Flood, 0 to 100 scale, approx. 21 days
Procedure, shortened: as §2

blackgrass = assay: Test F preemergence/postemergence greenhouse plant response rating 0 to 100; format: in vivo, Alopecurus myosuroides; settings: POSTEMERGENCE, 0 to 100 scale; for Blackgrass (1) plant response rating: stage (1) two to three leaves; for Blackgrass (2) plant response rating: stage (2) approximately four leaves or initial tillering
Procedure, shortened: (§3)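 Compounds in non-phytotoxic solvent were applied preemergence to sandy loam soil about one day after sowing, and postemergence to plants at the one-to-four leaf stage grown in 60:40 sandy loam/potting mix. After roughly 21 to 28 days in the greenhouse, treated plants were visually rated against untreated controls.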

field violet = assay: as above; format: in vivo, Viola arvensis; settings: POSTEMERGENCE, 0 to 100 scale
Procedure, shortened: as §3

rape = assay: as above; format: in vivo, Brassica napus; settings: POSTEMERGENCE, 0 to 100 scale
Procedure, shortened: as §3

sunflower = assay: as above; format: in vivo, Helianthus annuus cv. ‘Russian Giant’; settings: POSTEMERGENCE, 0 to 100 scale
Procedure, shortened: as §3

wild buckwheat = assay: as above; format: in vivo, Polygonum convolvulus; settings: POSTEMERGENCE, 0 to 100 scale
Procedure, shortened: as §3

C#CC(C)Oc1cc(-c2nn3c(c2Cl)CCCC3)c(F)cc1Cl (centres unmarked) [Compound 36]
Japonica rice plant response rating (Japonica rice [1]; Rate 4 g/ha): 10
Japonica rice plant response rating (Japonica rice [1]; Rate 8 g/ha): 10
Japonica rice plant response rating (Japonica rice [1]; Rate 16 g/ha): 15
Japonica rice plant response rating (Japonica rice [1]; Rate 32 g/ha): 20
Japonica rice plant response rating (Japonica rice [1]; Rate 64 g/ha): 25
Barnyardgrass 2 plant response rating (barnyardgrass [2]; Rate 4 g/ha): 30
Barnyardgrass 2 plant response rating (barnyardgrass [2]; Rate 8 g/ha): 65
Barnyardgrass 2 plant response rating (barnyardgrass [2]; Rate 16 g/ha): 80
Barnyardgrass 2 plant response rating (barnyardgrass [2]; Rate 32 g/ha): 100
Barnyardgrass 2 plant response rating (barnyardgrass [2]; Rate 64 g/ha): 100
Duck salad plant response rating (duck salad; Rate 4 g/ha): 0
Duck salad plant response rating (duck salad; Rate 8 g/ha): 0
Duck salad plant response rating (duck salad; Rate 16 g/ha): 20
Duck salad plant response rating (duck salad; Rate 32 g/ha): 30
Duck salad plant response rating (duck salad; Rate 64 g/ha): 60
Umbrella sedge plant response rating (umbrella sedge; Rate 4 g/ha): 0
Umbrella sedge plant response rating (umbrella sedge; Rate 8 g/ha): 0
Umbrella sedge plant response rating (umbrella sedge; Rate 16 g/ha): 60
Umbrella sedge plant response rating (umbrella sedge; Rate 32 g/ha): 70
Umbrella sedge plant response rating (umbrella sedge; Rate 64 g/ha): 80
Arrowhead plant response rating (arrowhead; Rate 4 g/ha): 0
Arrowhead plant response rating (arrowhead; Rate 8 g/ha): 0
Arrowhead plant response rating (arrowhead; Rate 16 g/ha): 0
Arrowhead plant response rating (arrowhead; Rate 32 g/ha): 0
Arrowhead plant response rating (arrowhead; Rate 64 g/ha): 0
Waterchestnut plant response rating (waterchestnut; Rate 4 g/ha): 10
Waterchestnut plant response rating (waterchestnut; Rate 8 g/ha): 10
Waterchestnut plant response rating (waterchestnut; Rate 16 g/ha): 20
Waterchestnut plant response rating (waterchestnut; Rate 32 g/ha): 20
Waterchestnut plant response rating (waterchestnut; Rate 64 g/ha): 20
Japonica 1 plant response rating (Japonica rice [3]; Rate 8 g/ha): 15
Japonica 2 plant response rating (Japonica rice [3]; Rate 8 g/ha): 10
Japonica 1 plant response rating (Japonica rice [3]; Rate 16 g/ha): 20
Japonica 2 plant response rating (Japonica rice [3]; Rate 16 g/ha): 0
Japonica 1 plant response rating (Japonica rice [3]; Rate 32 g/ha): 20
Japonica 2 plant response rating (Japonica rice [3]; Rate 32 g/ha): 15
Japonica 1 plant response rating (Japonica rice [3]; Rate 64 g/ha): 25
Japonica 2 plant response rating (Japonica rice [3]; Rate 64 g/ha): 15
Japonica 1 plant response rating (Japonica rice [3]; Rate 125 g/ha): 25
Japonica 2 plant response rating (Japonica rice [3]; Rate 125 g/ha): 20
Barnyardgrass 2 plant response rating (barnyardgrass [4]; Rate 8 g/ha): 30
Barnyardgrass 3 plant response rating (barnyardgrass [4]; Rate 8 g/ha): 30
Barnyardgrass 2 plant response rating (barnyardgrass [4]; Rate 16 g/ha): 40
Barnyardgrass 3 plant response rating (barnyardgrass [4]; Rate 16 g/ha): 35
Barnyardgrass 2 plant response rating (barnyardgrass [4]; Rate 32 g/ha): 55
Barnyardgrass 3 plant response rating (barnyardgrass [4]; Rate 32 g/ha): 40
Barnyardgrass 2 plant response rating (barnyardgrass [4]; Rate 64 g/ha): 65
Barnyardgrass 3 plant response rating (barnyardgrass [4]; Rate 64 g/ha): 50
Barnyardgrass 2 plant response rating (barnyardgrass [4]; Rate 125 g/ha): 100
Barnyardgrass 3 plant response rating (barnyardgrass [4]; Rate 125 g/ha): 75
Blackgrass (1) plant response rating (blackgrass; Rate 4 g/ha): 0
Blackgrass (2) plant response rating (blackgrass; Rate 4 g/ha): 0
Blackgrass (1) plant response rating (blackgrass; Rate 8 g/ha): 0
Blackgrass (2) plant response rating (blackgrass; Rate 8 g/ha): 0
Blackgrass (1) plant response rating (blackgrass; Rate 16 g/ha): 0
Blackgrass (2) plant response rating (blackgrass; Rate 16 g/ha): 10
Blackgrass (1) plant response rating (blackgrass; Rate 32 g/ha): 5
Blackgrass (2) plant response rating (blackgrass; Rate 32 g/ha): 20
Field violet plant response rating (field violet; Rate 4 g/ha): 100
Field violet plant response rating (field violet; Rate 8 g/ha): 100
Field violet plant response rating (field violet; Rate 16 g/ha): 100
Field violet plant response rating (field violet; Rate 32 g/ha): 100
Rape plant response rating (rape; Rate 8 g/ha): 40
Rape plant response rating (rape; Rate 16 g/ha): 100
Rape plant response rating (rape; Rate 32 g/ha): 100
Sunflower plant response rating (sunflower; Rate 4 g/ha): 0
Sunflower plant response rating (sunflower; Rate 8 g/ha): 40
Sunflower plant response rating (sunflower; Rate 16 g/ha): 50
Sunflower plant response rating (sunflower; Rate 32 g/ha): 60
Wild buckwheat plant response rating (wild buckwheat; Rate 16 g/ha): 100
Wild buckwheat plant response rating (wild buckwheat; Rate 32 g/ha): 100
